Results on 31 compounds are retold here after patent publication US12559495B2 (Agency for Science, Technology and Research, priority 2013, dated 2026).

The experiment deals with HEK293-STF3A cells. Briefly: STF3A assay (luciferase reporter). Format: cell-based. To be noted: Homo sapiens, 24 h, 1 day of treatment. Here is the method:
HEK293-STF cell line was modified from Human embryonic kidney cell line HEK293 transfected with the STF reporter. HEK293-STF3A cell line was further modified from HEK293-STF cell line to express Wnt3A. This cell line was used to identify compounds that regulate either early or late signalling components of the Wnt pathway. L-Wnt3A (ATCC, #CRL-2647) cell line was used for providing Wnt3A conditioned media. The three cell lines were grown in DMEM (Dulbecco's Modified Eagle Medium) with 10% FBS (fetal bovine serum) incubated in 37° C. with 5% CO2. 2×10^4 HEK293-STF3A cells in 75 μl culture media were seeded in each well of white 96 well plates (Greiner #655098) and incubated overnight at 37° C. 25 μl serially diluted compound was added to the cells to give final concentration of 50 μM to 1.5 nM. After 1 day of treatment, 100 μl of Steady-Glo® Luciferase Assay reagent (#E2520, Promega) was added to each well and incubated for 10 minutes at room temperature. Luminescence was measured using Tecan Safire2® plate reader.
Usually IC50 stands for the concentration needed to halve the response being measured. Low values mean greater potency, high ones weaker potency. In turn, `Cn1c(=O)c2c(ncn2CC(=O)Nc2cnc(-c3ccccc3)cn2)n(C)c1=O` [Compound 36, 2-(1,3-dimethyl-2,6-dioxo-2,3-dihydro-1H-purin-7(6H)-yl)-N-(5-phenylpyrazin-2-yl)acetamide] displayed an IC50 below 0.1 µM.
As for `Cn1c(=O)c2c(ncn2CC(=O)Nc2ccc(-c3ccc(F)cc3)cn2)n(C)c1=O` [Compound 37, 2-(1,3-dimethyl-2,6-dioxo-2,3-dihydro-1H-purin-7(6H)-yl)-N-(5-(4-fluorophenyl)pyridin-2-yl)acetamide], the figure is below 0.1 µM; as for `COC(=O)c1ccc(-c2ccc(NC(=O)Cn3cnc4c3c(=O)n(C)c(=O)n4C)cc2)cc1` [Compound 38, methyl 4′-(2-(1,3-dimethyl-2,6-dioxo-2,3-dihydro-1H-purin-7(6H)-yl)acetamido)biphenyl-4-carboxylate], below 0.1 µM.
As for `Cn1c(=O)c2c(ncn2CC(=O)Nc2cc(-c3ccccc3)no2)n(C)c1=O` [Compound 39, 2-(1,3-dimethyl-2,6-dioxo-2,3-dihydro-1H-purin-7(6H)-yl)-N-(3-phenylisoxazol-5-yl)acetamide], the figure is above 10 µM; as for `Cn1c(=O)c2c(ncn2CC(=O)Nc2ccc(-c3cnco3)cc2)n(C)c1=O` [Compound 40, 2-(1,3-dimethyl-2,6-dioxo-2,3-dihydro-1H-purin-7(6H)-yl)-N-(4-(oxazol-5-yl)phenyl)acetamide], below 1 µM.
The compound `Cn1c(=O)c2c(ncn2CC(=O)Nc2ccc(-c3nccs3)cn2)n(C)c1=O` [Compound 41, 2-(1,3-dimethyl-2,6-dioxo-2,3-dihydro-1H-purin-7(6H)-yl)-N-(5-(thiazol-2-yl)pyridin-2-yl)acetamide] registered an IC50 below 0.1 µM.
As for `Cn1c(=O)c2c(ncn2CC(=O)Nc2ccc(N3CCNCC3)cn2)n(C)c1=O` [Compound 42, 2-(1,3-dimethyl-2,6-dioxo-2,3-dihydro-1H-purin-7(6H)-yl)-N-(5-(piperazin-1-yl)pyridin-2-yl)acetamide], the figure is above 10 µM.
As for `C[C@H]1CNCCN1c1ccc(NC(=O)Cn2cnc3c2c(=O)n(C)c(=O)n3C)cc1` [Compound 43, (S)-2-(1,3-dimethyl-2,6-dioxo-2,3-dihydro-1H-purin-7(6H)-yl)-N-(4-(2-methylpiperazin-1-yl)phenyl)acetamide], the figure is above 10 µM; as for `C[C@@H]1CNCCN1c1ccc(NC(=O)Cn2cnc3c2c(=O)n(C)c(=O)n3C)cc1` [Compound 44, (R)-2-(1,3-dimethyl-2,6-dioxo-2,3-dihydro-1H-purin-7(6H)-yl)-N-(4-(2-methylpiperazin-1-yl)phenyl)acetamide], above 10 µM; as for `Cn1c(=O)c2c(ncn2CC(=O)Nc2ccc(N3CCN(C(=O)c4ccccc4)CC3)cn2)n(C)c1=O` [Compound 45, N-(5-(4-benzoylpiperazin-1-yl)pyridin-2-yl)-2-(1,3-dimethyl-2,6-dioxo-2,3-dihydro-1H-purin-7(6H)-yl)acetamide], below 0.1 µM.
With `C[C@H]1CN(C(=O)c2ccccc2)CCN1c1ccc(NC(=O)Cn2cnc3c2c(=O)n(C)c(=O)n3C)cc1` [Compound 46, (S)—N-(4-(4-benzoyl-2-methylpiperazin-1-yl)phenyl)-2-(1,3-dimethyl-2,6-dioxo-2,3-dihydro-1H-purin-7(6H)-yl)acetamide] the figure was below 1 µM; with `Cn1c(=O)c2c(ncn2CC(=O)Nc2ccc(N3CCN(C(=O)CC(C)(C)C)CC3)cn2)n(C)c1=O` [Compound 47, 2-(1,3-dimethyl-2,6-dioxo-2,3-dihydro-1H-purin-7(6H)-yl)-N-(5-(4-(3,3-dimethylbutanoyl)piperazin-1-yl)pyridin-2-yl)acetamide], below 1 µM; with `CC(=O)N1CCN(c2ccc(NC(=O)Cn3cnc4c3c(=O)n(C)c(=O)n4C)nc2)CC1` [Compound 48], below 1 µM.
In turn, `Cn1c(=O)c2c(ncn2CC(=O)Nc2ccc(N3CCN(C(=O)c4ccc(Cl)cc4)CC3)cn2)n(C)c1=O` [Compound 49, N-(5-(4-(4-chlorobenzoyl)piperazin-1-yl)pyridin-2-yl)-2-(1,3-dimethyl-2,6-dioxo-2,3-dihydro-1H-purin-7(6H)-yl)acetamide] had an IC50 below 1 µM.
As for `Cn1c(=O)c2c(ncn2CC(=O)Nc2ccc(N3CCN(C(=O)c4cccs4)CC3)cn2)n(C)c1=O` [Compound 50, 2-(1,3-dimethyl-2,6-dioxo-2,3-dihydro-1H-purin-7(6H)-yl)-N-(5-(4-(thiophene-2-carbonyl)piperazin-1-yl)pyridin-2-yl)acetamide], the figure is below 1 µM; as for `Cn1c(=O)c2c(ncn2CC(=O)Nc2ccc(N3CCN(C(=O)c4cccc(F)c4)CC3)cn2)n(C)c1=O` [Compound 51, 2-(1,3-dimethyl-2,6-dioxo-2,3-dihydro-1H-purin-7(6H)-yl)-N-(5-(4-(3-fluorobenzoyl)piperazin-1-yl)pyridin-2-yl)acetamide], below 1 µM; as for `Cn1c(=O)c2c(ncn2CC(=O)Nc2ccc(N3CCN(C(=O)c4ccc(F)cc4)CC3)cn2)n(C)c1=O` [Compound 52, 2-(1,3-dimethyl-2,6-dioxo-2,3-dihydro-1H-purin-7(6H)-yl)-N-(5-(4-(4-fluorobenzoyl)piperazin-1-yl)pyridin-2-yl)acetamide], below 1 µM.
As for `Cn1c(=O)c2c(ncn2CC(=O)Nc2ccc(N3CCN(Cc4ccccc4)CC3)cn2)n(C)c1=O` [Compound 53, N-(5-(4-benzylpiperazin-1-yl)pyridin-2-yl)-2-(1,3-dimethyl-2,6-dioxo-2,3-dihydro-1H-purin-7(6H)-yl)acetamide], the figure is below 0.1 µM; as for `Cn1c(=O)c2c(ncn2CC(=O)Nc2ccc(N3CCN(Cc4cc(F)cc(F)c4)CC3)cn2)n(C)c1=O` [Compound 54, N-(5-(4-(3,5-difluorobenzyl)piperazin-1-yl)pyridin-2-yl)-2-(1,3-dimethyl-2,6-dioxo-2,3-dihydro-1H-purin-7(6H)-yl)acetamide], below 0.1 µM.
Turning to `Cn1c(=O)c2c(ncn2CC(=O)Nc2ccc(N3CCN(Cc4ccccc4F)CC3)cn2)n(C)c1=O` [Compound 55, 2-(1,3-dimethyl-2,6-dioxo-2,3-dihydro-1H-purin-7(6H)-yl)-N-(5-(4-(2-fluorobenzyl)piperazin-1-yl)pyridin-2-yl)acetamide], the IC50 is below 5 µM.
As for `Cn1c(=O)c2c(ncn2CC(=O)Nc2ccc(N3CCN(Cc4ccc(F)cc4)CC3)cn2)n(C)c1=O` [Compound 56, 2-(1,3-dimethyl-2,6-dioxo-2,3-dihydro-1H-purin-7(6H)-yl)-N-(5-(4-(4-fluorobenzyl)piperazin-1-yl)pyridin-2-yl)acetamide], the figure is below 1 µM.
With `Cn1c(=O)c2c(ncn2CC(=O)Nc2ccc(N3CCN(Cc4cccc(F)c4)CC3)cn2)n(C)c1=O` [Compound 57, 2-(1,3-dimethyl-2,6-dioxo-2,3-dihydro-1H-purin-7(6H)-yl)-N-(5-(4-(3-fluorobenzyl)piperazin-1-yl)pyridin-2-yl)acetamide] the figure was below 0.1 µM.
The compound `C[C@H](C(=O)Nc1ccc(-c2ccsc2)cc1)n1cnc2c1c(=O)n(C)c(=O)n2C` [Compound 58, (R)-2-(1,3-dimethyl-2,6-dioxo-2,3-dihydro-1H-purin-7(6H)-yl)-N-(4-(thiophen-3-yl)phenyl)propanamide] displayed an IC50 above 10 µM.
With `C[C@@H](C(=O)Nc1ccc(-c2ccsc2)cc1)n1cnc2c1c(=O)n(C)c(=O)n2C` [Compound 59, (S)-2-(1,3-dimethyl-2,6-dioxo-2,3-dihydro-1H-purin-7(6H)-yl)-N-(4-(thiophen-3-yl)phenyl)propanamide] the figure was below 0.1 µM.
As for `Cn1c(=O)c2c(ncn2C(C)(C)C(=O)Nc2ccc(-c3ccsc3)cc2)n(C)c1=O` [Compound 60, 2-(1,3-dimethyl-2,6-dioxo-2,3-dihydro-1H-purin-7(6H)-yl)-2-methyl-N-(4-(thiophen-3-yl)phenyl)propanamide], the figure is below 1 µM; as for `CC(C(=O)Nc1ccc(-c2ccsc2)cc1)n1cnc2c1c(=O)n(C)c(=O)n2C` (stereo not shown) [Compound 61, 2-(1,3-dimethyl-2,6-dioxo-2,3-dihydro-1H-purin-7(6H)-yl)-N-(4-(thiophen-3-yl)phenyl)propanamide], below 0.1 µM.
With `CC(C(=O)Nc1ccc(-c2ccccc2)cc1)n1cnc2c1c(=O)n(C)c(=O)n2C` (stereo not shown) [Compound 62, N-(biphenyl-4-yl)-2-(1,3-dimethyl-2,6-dioxo-2,3-dihydro-1H-purin-7(6H)-yl)propanamide] the figure was below 0.1 µM; with `CC(C(=O)Nc1ccc(N2CCN(Cc3cc(F)cc(F)c3)CC2)cc1)n1cnc2c1c(=O)n(C)c(=O)n2C` (stereo not shown) [Compound 63, N-(4-(4-(3,5-difluorobenzyl)piperazin-1-yl)phenyl)-2-(1,3-dimethyl-2,6-dioxo-2,3-dihydro-1H-purin-7(6H)-yl)propanamide], below 1 µM.
`CCC(C(=O)Nc1ccc(-c2ccsc2)cc1)n1cnc2c1c(=O)n(C)c(=O)n2C` (stereo not shown) [Compound 64, 2-(1,3-dimethyl-2,6-dioxo-2,3-dihydro-1H-purin-7(6H)-yl)-N-(4-(thiophen-3-yl)phenyl)butanamide] yielded a 50% inhibitory concentration (IC50) below 0.1 µM.
With `CC(C)C(C(=O)Nc1ccc(-c2ccccc2)cc1)n1cnc2c1c(=O)n(C)c(=O)n2C` (stereo not shown) [Compound 65, N-(biphenyl-4-yl)-2-(1,3-dimethyl-2,6-dioxo-2,3-dihydro-1H-purin-7(6H)-yl)-3-methylbutanamide] the figure was above 10 µM.
As to `Cc1nc2c(c(=O)n(C)c(=O)n2C)n1CC(=O)Nc1ccc(-c2ccsc2)cc1` [Compound 66, N-(4-(thiophen-3-yl)phenyl)-2-(1,3,8-trimethyl-2,6-dioxo-2,3-dihydro-1H-purin-7(6H)-yl)acetamide], the IC50 is below 0.1 µM.
